Laboratory results published in the NIST ThermoML archive (doi:10.1016/j.jct.2006.08.009).

Experiment: mn = molality of the nth substance listed, in mol/kg
Conditions: 350 kPa, Liquid; for apparent molar heat capacity: Extra sensitive DSC

O[C@H]1[C@H](O)[C@@H](O)[C@H](O)[C@@H](O)[C@H]1O [cis-1,2,3,5-trans-4,6-cyclohexanehexol] + O
Conditions	apparent molar heat capacity [J/K/mol]	mass density [kg/m3]
278.15 K, m1 = 0.02	255	1001.54
278.15 K, m1 = 0.05	253	1004.04
278.15 K, m1 = 0.0814	256.7	–
278.15 K, m1 = 0.1	267.7	–
278.15 K, m1 = 0.1028	257.3	–
278.15 K, m1 = 0.248	263.1	1020.11
278.15 K, m1 = 0.3973	262.1	1031.74
278.15 K, m1 = 0.4994	269.8	1039.85
283.15 K, m1 = 0.02	287	1001.49
283.15 K, m1 = 0.05	285	1003.92
283.15 K, m1 = 0.0814	292.1	–
283.15 K, m1 = 0.1	295.6	–
283.15 K, m1 = 0.1028	284.4	–
283.15 K, m1 = 0.248	290.5	1019.58
283.15 K, m1 = 0.3973	289	1030.95
283.15 K, m1 = 0.4994	295.3	1038.94
288.15 K, m1 = 0.02	312	1000.86
288.15 K, m1 = 0.05	312	1003.27
288.15 K, m1 = 0.0814	323	–
288.15 K, m1 = 0.1	319.7	–
288.15 K, m1 = 0.1028	306	–
288.15 K, m1 = 0.248	312.7	1018.73
288.15 K, m1 = 0.3973	311.2	1029.97
288.15 K, m1 = 0.4994	316.4	1037.9
293.15 K, m1 = 0.02	332	–
293.15 K, m1 = 0.05	332	–
293.15 K, m1 = 0.0814	342.6	–
293.15 K, m1 = 0.1	339	–
293.15 K, m1 = 0.1028	326	–
293.15 K, m1 = 0.248	331.5	–
293.15 K, m1 = 0.3973	329.9	–
293.15 K, m1 = 0.4994	334.1	–
298.15 K, m1 = 0.02	347	998.75
298.15 K, m1 = 0.05	348	1001.13
298.15 K, m1 = 0.0814	358.6	1003.66
298.15 K, m1 = 0.1	354.4	–
298.15 K, m1 = 0.1028	343.7	–
298.15 K, m1 = 0.248	347.5	1016.29
298.15 K, m1 = 0.3973	345.6	1027.32
298.15 K, m1 = 0.4994	349.1	1035.14
303.15 K, m1 = 0.02	362	–
303.15 K, m1 = 0.05	362.7	–
303.15 K, m1 = 0.0814	371.2	–
303.15 K, m1 = 0.1	367.4	–
303.15 K, m1 = 0.1028	358.9	–
303.15 K, m1 = 0.248	361.3	–
303.15 K, m1 = 0.3973	359	–
303.15 K, m1 = 0.4994	361.9	–
308.15 K, m1 = 0.02	374	995.69
308.15 K, m1 = 0.05	374.4	998.05
308.15 K, m1 = 0.0814	381.2	1000.51
308.15 K, m1 = 0.1	378.5	1001.45
308.15 K, m1 = 0.1028	371.6	1001.99
308.15 K, m1 = 0.248	373.2	1012.97
308.15 K, m1 = 0.3973	370.4	1023.83
308.15 K, m1 = 0.4994	373	1031.55
313.15 K, m1 = 0.02	386	–
313.15 K, m1 = 0.05	385.5	–
313.15 K, m1 = 0.0814	390.4	–
313.15 K, m1 = 0.1	388.5	–
313.15 K, m1 = 0.1028	382.8	–
313.15 K, m1 = 0.248	383.6	–
313.15 K, m1 = 0.3973	380.5	–
313.15 K, m1 = 0.4994	382.7	–
318.15 K, m1 = 0.02	395	991.86
318.15 K, m1 = 0.05	394.7	994.19
318.15 K, m1 = 0.0814	398.6	996.61
318.15 K, m1 = 0.1	397.3	997.52
318.15 K, m1 = 0.1028	392.5	998.07
318.15 K, m1 = 0.248	392.7	1008.92
318.15 K, m1 = 0.3973	389.4	1019.64
318.15 K, m1 = 0.4994	391.3	1027.27
323.15 K, m1 = 0.02	403	–
323.15 K, m1 = 0.05	402.6	–
323.15 K, m1 = 0.0814	405.9	–
323.15 K, m1 = 0.1	405	–
323.15 K, m1 = 0.1028	401	–
323.15 K, m1 = 0.248	400.7	–
323.15 K, m1 = 0.3973	397.3	–
323.15 K, m1 = 0.4994	398.9	–
328.15 K, m1 = 0.02	410	987.32
328.15 K, m1 = 0.05	409.6	989.63
328.15 K, m1 = 0.0814	412.6	992.01
328.15 K, m1 = 0.1	411.7	992.93
328.15 K, m1 = 0.1028	408.3	993.47
328.15 K, m1 = 0.248	407.8	1004.2
328.15 K, m1 = 0.3973	404.3	1014.83
328.15 K, m1 = 0.4994	405.6	1022.36
333.15 K, m1 = 0.02	416	–
333.15 K, m1 = 0.05	415.7	–
333.15 K, m1 = 0.0814	418.7	–
333.15 K, m1 = 0.1	417.8	–
333.15 K, m1 = 0.1028	414.9	–
333.15 K, m1 = 0.248	414.1	–
333.15 K, m1 = 0.3973	410.5	–
333.15 K, m1 = 0.4994	411.6	–
338.15 K, m1 = 0.02	421	982.18
338.15 K, m1 = 0.05	421.5	984.47
338.15 K, m1 = 0.0814	424.1	986.82
338.15 K, m1 = 0.1	423.2	987.73
338.15 K, m1 = 0.1028	420.6	988.27
338.15 K, m1 = 0.248	419.6	998.91
338.15 K, m1 = 0.3973	416.1	1009.45
338.15 K, m1 = 0.4994	416.9	1016.94
343.15 K, m1 = 0.02	427	–
343.15 K, m1 = 0.05	426.7	–
343.15 K, m1 = 0.0814	429	–
343.15 K, m1 = 0.1	427.9	–
343.15 K, m1 = 0.1028	425.9	–
343.15 K, m1 = 0.248	424.6	–
343.15 K, m1 = 0.3973	421	–
343.15 K, m1 = 0.4994	421.6	–
348.15 K, m1 = 0.02	430.7	976.46
348.15 K, m1 = 0.05	431.2	978.72
348.15 K, m1 = 0.0814	433.3	981.07
348.15 K, m1 = 0.1	431.9	981.98
348.15 K, m1 = 0.1028	430.3	982.51
348.15 K, m1 = 0.248	428.9	993.1
348.15 K, m1 = 0.3973	425.2	1003.55
348.15 K, m1 = 0.4994	425.8	1010.99
353.15 K, m1 = 0.02	435.4	–
353.15 K, m1 = 0.05	435.4	–
353.15 K, m1 = 0.0814	437.2	–
353.15 K, m1 = 0.1	435.3	–
353.15 K, m1 = 0.1028	434.1	–
353.15 K, m1 = 0.248	432.5	–
353.15 K, m1 = 0.3973	428.9	–
353.15 K, m1 = 0.4994	429.3	–
358.15 K, m1 = 0.02	439.4	970.24
358.15 K, m1 = 0.05	439	972.5
358.15 K, m1 = 0.0814	440.6	974.84
358.15 K, m1 = 0.1	438.3	975.72
358.15 K, m1 = 0.1028	437.2	976.24
358.15 K, m1 = 0.248	435.7	986.78
358.15 K, m1 = 0.3973	432	997.2
358.15 K, m1 = 0.4994	432.4	–
363.15 K, m1 = 0.02	442.2	–
363.15 K, m1 = 0.05	441.7	–
363.15 K, m1 = 0.0814	443.4	–
363.15 K, m1 = 0.1	440.5	–
363.15 K, m1 = 0.1028	439.4	–
363.15 K, m1 = 0.248	438.2	–
363.15 K, m1 = 0.3973	434.6	–
363.15 K, m1 = 0.4994	434.8	–
368.15 K, m1 = 0.02	–	963.51
368.15 K, m1 = 0.05	–	965.76
368.15 K, m1 = 0.0814	–	968.11
368.15 K, m1 = 0.1	–	969.08
368.15 K, m1 = 0.1028	–	969.48
368.15 K, m1 = 0.248	–	980
368.15 K, m1 = 0.3973	–	990.36
368.15 K, m1 = 0.4994	–	997.73
